In patent US20190134004A1, “METHODS AND COMPOSITIONS FOR TREATING BREAST AND PROSTATE CANCER” (The University of Chicago, priority 2016, published 2019):
“Also recorded” adds a separate entry of the source.

Legend:
LNCaP-EnzaR cells = test: Cell viability of LNCaP-EnzaR cells treated with R1881, enzalutamide, Dex with or without JQ1; format: cell-based, human; conditions: 3 days
Description: FIG. 3. […] LNCaP-EnzR cells were treated for three days of R1881 and enzalutamide (RE), concurrently with vehicle, Dex (D) or D+JQ1. Error bars=standard error of mean. The bars, from left to right, correspond to RE, RED, and RED-JQ 1.
BET-inhibition decreases Enza-R survival in vitro despite dexamethasone. It has been reported that the BET inhibitor JQ1 (100-500 nM) can decrease Enza-R cell survival, potentially through inhibition of ligand independent AR splice variants.

[1] = system: GR (NR3C1) target gene expression; test: Dex-mediated GR target gene expression (KLK3, SGK1, FKBP5) with BET inhibition in LNCaP-EnzR cells; format: cell-based, human; conditions: three days R1881 and enzalutamide, then Dex or Dex+JQ1, relative to RE, p<0.05
Description: FIG. 2. Dex-mediated GR (NR3C1) target gene expression decreased with BETinhibition. LNCaP-EnzR cells were treated for three days of R1881 and enzalutamide (RE), after which cells stimulated with Dex (D) or Dex+JQ1. All conditions relative to RE. Changes all significant p<0.05 with no change in GR expression across conditions. Each series of bars from left to right corresponds to data from RE, RED, and RED-JQl.
The inventors have also verified that the principal BET-BRD proteins inhibited by a BET inhibitor (ABT-075), BRD4 and BRD3 are expressed within the Enza-R CRPC cell lines. […] It was next sought to explore whether for specific, known GR-regulated in PC cells genes (KLK3, SGK1, FKBPS) the BET inhibitor tool compound JQ1 was able to decrease GR mediated gene expression.

Enza-R cells = conditions: JQ1 100-500 nM; reported; cited from earlier work
GR binding sites = test: GR ChIP-seq in LAPC4 cells after addition of dexamethasone; format: cell-based, human
Description: The inventors recently discovered that within PC cells, activated GR can compensate transcriptionally for a large set of genes. […] In a companion experiment using chromatin immunoprecipitation followed by deep sequeicing (ChIP-seq) in LAPC4 cells, the addition of dexamethasone to activate the GR leads to ˜700 new unique GR binding sites, approximately 70 of these new sites are within 5 kilobase (kb) of the transctiption start site of known genes. This argues that the majority of GR chromatin binding and subsequent gene regulation is through regulation at more distant enhancer sites rather then through direct promoter site binding. As bromodomain proteins such as BRD4 cooperate with known transcription factors, including the GR, at such enhancers to enable gene regulation, the inventors sought to establish whether BRD4 and GR cooperate to regulate pro-survival genes in Enza-R CRPC.

Row | Structure (SMILES) | viable cell numbers (Dex-mediated cell viability) (LNCaP-EnzaR cells; JQ1 500 nM with dexamethasone 100 nM, R1881 1 nM, enzalutamide 10 μM) | GR mediated gene expression (KLK3, SGK1, FKBPS) [1] | Enza-R cell survival (Enza-R cells) | viable cell numbers (LNCaP-EnzaR cells; dexamethasone 100 nM with R1881 1 nM and enzalutamide 10 μM) | new unique GR binding sites (GR binding sites)
1 | Cc1sc2c(c1C)C(c1ccc(Cl)cc1)=N[C@@H](CC(=O)OC(C)(C)C)c1nnc(C)n1-2 [JQ1] | significantly decreased | significantly countered; also recorded: decreased | can decrease | – | –
2 | C[C@@H]1C[C@H]2[C@@H]3CCC4=CC(=O)C=C[C@]4(C)[C@@]3(F)[C@@H](O)C[C@]2(C)[C@@]1(O)C(=O)CO [Dex, dexamethasone] | – | – | – | increases | ~700
